For one assay, the target named is T1, COX-2 (Homo sapiens, UniProt P35354).
T1 construct: purchased Cayman Chemicals 700100
T1 sequence (P35354 18-604): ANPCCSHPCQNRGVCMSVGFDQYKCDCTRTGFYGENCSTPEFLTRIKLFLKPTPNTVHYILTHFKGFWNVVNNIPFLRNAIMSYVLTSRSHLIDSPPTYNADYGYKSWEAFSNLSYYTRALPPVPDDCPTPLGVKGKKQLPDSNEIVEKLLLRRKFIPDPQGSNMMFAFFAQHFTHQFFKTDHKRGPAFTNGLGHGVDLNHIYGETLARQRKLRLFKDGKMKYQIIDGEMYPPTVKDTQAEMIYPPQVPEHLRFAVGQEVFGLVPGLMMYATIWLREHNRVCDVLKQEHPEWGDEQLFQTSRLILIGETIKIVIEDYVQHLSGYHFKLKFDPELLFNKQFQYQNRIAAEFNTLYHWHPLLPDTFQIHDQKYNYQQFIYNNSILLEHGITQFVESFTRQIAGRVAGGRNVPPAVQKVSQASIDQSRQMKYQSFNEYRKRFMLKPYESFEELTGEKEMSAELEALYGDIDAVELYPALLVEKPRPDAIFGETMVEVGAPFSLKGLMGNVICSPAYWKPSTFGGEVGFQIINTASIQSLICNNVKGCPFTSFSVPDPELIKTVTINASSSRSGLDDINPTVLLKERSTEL
Description: COX inhibitor screening fluorometric assay (COX-2). It is filed as biochemical. As for the experimental part: (§1) Anti-inflammatory activity was evaluated determining the capacity of some major metabolites of F. vulgare to inhibit the cyclooxygenase activity (COX). […] The assay uses the peroxidase component of COXs. The reaction between PGG2 and ADHP creates resorufin, a highly fluorescent compound. […] The inhibition of COXs is directly proportional to the reduction of resorufin fluorescence.
(§2) The analyses were made in triplicate and the results are expressed as the mean of the IC50 (µM) ± the standard deviation.

In the next assay the target is T2, COX-1 (Ovis aries, UniProt P05979).
T2 construct: purchased Cayman Chemicals 700100
T2 sequence (P05979 25-600): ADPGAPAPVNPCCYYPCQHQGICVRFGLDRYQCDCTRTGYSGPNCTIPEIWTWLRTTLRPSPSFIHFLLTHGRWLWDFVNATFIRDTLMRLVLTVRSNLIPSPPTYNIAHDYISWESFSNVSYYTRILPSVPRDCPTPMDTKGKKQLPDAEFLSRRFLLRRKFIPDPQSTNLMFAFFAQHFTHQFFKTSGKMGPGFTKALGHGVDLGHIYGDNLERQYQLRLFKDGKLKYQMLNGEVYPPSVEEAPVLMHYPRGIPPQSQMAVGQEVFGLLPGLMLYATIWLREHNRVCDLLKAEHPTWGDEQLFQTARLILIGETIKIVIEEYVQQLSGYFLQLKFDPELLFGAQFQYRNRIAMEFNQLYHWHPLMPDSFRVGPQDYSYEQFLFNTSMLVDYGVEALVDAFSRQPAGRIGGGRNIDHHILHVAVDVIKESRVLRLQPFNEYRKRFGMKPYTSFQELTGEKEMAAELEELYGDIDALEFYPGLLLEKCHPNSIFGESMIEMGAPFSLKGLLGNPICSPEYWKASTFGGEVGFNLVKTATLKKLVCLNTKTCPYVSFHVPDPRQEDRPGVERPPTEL
In words: COX inhibitor screening fluorometric assay (COX-1). Format: biochemical. As to the method: as §1, §2

[1] abbreviates: fluorometric assay (resorufin, ex 535 nm / em 590 nm), mean of three determinations ± SD, metabolites tested at 25, 50, 100 and 150 µM, SC-560 at 2, 4, 8 and 10 nM.

Each structure is given as a SMILES string. Read-outs that look alike come from different tables or passages of the source.

Turning to `O=C(/C=C/c1ccc(O)c(O)c1)OC1C(O)CC(OC(=O)/C=C/c2ccc(O)c(O)c2)(C(=O)O)CC1O` (stereo not drawn) [Dicaffeoylquinic acid, dicaffeoylquinic acid], the IC50 (in general, the concentration that gives 50% inhibition) at COX-2 was 14.8 ± 2.39 µM; against COX-1 it was 85.6 ± 10.9 µM.

Consider `COc1cc(-c2oc3cc(O)cc(O)c3c(=O)c2OC2OC(C(=O)O)C(O)C(O)C2O)ccc1O` (stereo not drawn) [Isorhamnetin glucuronide, isorhamnetin glucuronide], for which the concentration for half-maximal inhibition (IC50) on COX-1 (setting [1]) amounted to 94.7 ± 1.22 µM. The same measure, in the same setting: to `O=C(O)C1OC(Oc2c(-c3ccc(O)cc3)oc3cc(O)cc(O)c3c2=O)C(O)C(O)C1O` (stereo not drawn) [Kaempferol glucuronide, kaempferol glucuronide] belongs 228 ± 16.8 µM.

With `O=c1c(O[C@@H]2O[C@H](CO)[C@@H](O)[C@H](O)[C@H]2O)c(-c2ccc(O)c(O)c2)oc2cc(O)cc(O)c12` [Quercetin glucoside, quercetin glucoside], it took 103 ± 8.66 µM to reach half-maximal inhibition against COX-1 (IC50). For the molecule `O=C(O)[C@H]1O[C@@H](Oc2c(-c3ccc(O)c(O)c3)oc3cc(O)cc(O)c3c2=O)[C@H](O)[C@@H](O)[C@@H]1O` [Quercetin glucuronide, quercetin glucuronide], at COX-1 (setting [1]), the 50% inhibitory concentration (IC50) came out at 571 ± 40 µM.

(Values after publication PMC9414302, “UPLC-ESI-QTRAP-MS/MS Analysis to Quantify Bioactive Compounds in Fennel (Foeniculum vulgare Mill.) Waste with Potential Anti-Inflammatory Activity” (Metabolites, 2022).)
